Assay results taken from patent publication US20050238733A1, “Topical anesthesia of the urinary bladder” (priority 2000, published 2005).

Key:
[1] = pKa and base-form fraction of local anesthetics in aqueous solution; format: physicochemical
Source text: The pKa is the pH at which 50% of the drug in an aqueous solution will be in the base form and 50% in the ion or charged form. As the pH of the solution falls, more of the drug converts into the ion form. Since the pH scale is a logarithmic scale, these changes are quite marked over a small pH range.
The pKa is the pH at which 50% of the drug in solution will be in the base form and 50% in the salt form. As the pH rises above the pKa, more of the drug will dissociate and convert into the free base non-ionic form. […] Local anesthetics and their pharmacology are discussed in detail in Remington's Pharmaceutical Sciences, A. Osol, ed., Mack Pub. Co., Easton, Pa. (16th ed. 1980) and the Merck Index (11th ed., 1989).

mast cells = conditions: low concentrations, opposite effect to inhibition; cited from earlier work
[2] = not given; remark: listed apart in the source

## CCN(CC)CC(=O)Nc1c(C)cccc1C [lidocaine]
[1]; pH 5.8
  fraction of drug in the base form: 0.5%
[1]; pH 6.8
  fraction of drug in the base form: 5%
Mast cells
  concentration at which lidocaine causes mast cells to release their histamine content: < 1 mmol
Anesthetized rabbits, intra-vesical, pH 8.1
  peak blood levels of radiolabeled lidocaine: 800 CPM/0.1 ml of blood
Live rabbit bladder, 45 minutes in situ, pH 8.45
  tissue levels of radioactive labeled lidocaine in bladder mucosa: declined rapidly to almost the same as at the pH levels below 8.0
Live rabbit bladder, 45 minutes in situ, pH between 8.1 and 8.25
  peak tissue levels of radioactive labeled lidocaine in bladder mucosa: around 3,500,000 CPM/g of tissue
[2]; alkalinized intravesical lidocaine, serum
  lidocaine levels compared with previously reported levels: ten times higher
[2]; human volunteers, 4, 5 or 6 mg/kg 5% lidocaine intravesical with 8.4% sodium bicarbonate, pH 8.0, all subjects, within the first hour
  peak blood (serum) levels of lidocaine: 0.5-2 ug/cc
[2]; human volunteers, at 30 minutes
  mean peak concentration of lidocaine in blood: 1.06 µg/mL
